We go through five compounds from patent US9309242B2, “Substituted pyrido[2,3-b]pyrazines as FGFR kinase inhibitors” (priority 2011, dated 2016).

Each structure is given as a SMILES string. Where a name gives a salt, the structure may show the parent alone. Read-outs that look alike come from different tables or passages of the source. Where only a bound is given, the exact number is not on record here.

The target of experiment [1] is FGFR1 (h) (Homo sapiens, UniProt P11362). Put plainly: FGFR1 (enzymatic assay), TR-FRET. It is filed as biochemical. The settings on record: read-out: FGFR 1 pIC50 (converted). A general note: In TR-FRET formats the signal depends on donor and acceptor labels being close together.
The target in experiment [2] is FGFR2 (h) (Homo sapiens, UniProt P21802). Put plainly: FGFR2 (enzymatic assay), TR-FRET. The note with it: enzymatic assay, read-out: FGFR 2 pIC50 (converted). It is filed as biochemical. An outline of the steps:
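Compound (1% DMSO final) was combined with FGFR2 (h), 150 ng/ml, plus 0.4 μM ATP and 500 nM biotin-Flt3 in Mn2+-containing HEPES buffer at pH 7.5.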

Experiment [3] has as its target FGFR3 (h) (Homo sapiens, UniProt P22607). Put plainly: FGFR3 (enzymatic assay), TR-FRET. It is filed as biochemical. The settings on record: read-out: FGFR 3 pIC50 (converted). An excerpt: Time-Resolved Fluorescence Resonance Energy Transfer (TR-FRET) signal (ex340 nm.
The target in experiment [4] is FGFR4 (h) (Homo sapiens, UniProt P22455). Put plainly: FGFR4 (enzymatic assay), TR-FRET. The note with it: FGFR 4 pIC50, enzymatic assay. In kind it is biochemical.
Chain of FGFR4 (h) (P22455 22-802): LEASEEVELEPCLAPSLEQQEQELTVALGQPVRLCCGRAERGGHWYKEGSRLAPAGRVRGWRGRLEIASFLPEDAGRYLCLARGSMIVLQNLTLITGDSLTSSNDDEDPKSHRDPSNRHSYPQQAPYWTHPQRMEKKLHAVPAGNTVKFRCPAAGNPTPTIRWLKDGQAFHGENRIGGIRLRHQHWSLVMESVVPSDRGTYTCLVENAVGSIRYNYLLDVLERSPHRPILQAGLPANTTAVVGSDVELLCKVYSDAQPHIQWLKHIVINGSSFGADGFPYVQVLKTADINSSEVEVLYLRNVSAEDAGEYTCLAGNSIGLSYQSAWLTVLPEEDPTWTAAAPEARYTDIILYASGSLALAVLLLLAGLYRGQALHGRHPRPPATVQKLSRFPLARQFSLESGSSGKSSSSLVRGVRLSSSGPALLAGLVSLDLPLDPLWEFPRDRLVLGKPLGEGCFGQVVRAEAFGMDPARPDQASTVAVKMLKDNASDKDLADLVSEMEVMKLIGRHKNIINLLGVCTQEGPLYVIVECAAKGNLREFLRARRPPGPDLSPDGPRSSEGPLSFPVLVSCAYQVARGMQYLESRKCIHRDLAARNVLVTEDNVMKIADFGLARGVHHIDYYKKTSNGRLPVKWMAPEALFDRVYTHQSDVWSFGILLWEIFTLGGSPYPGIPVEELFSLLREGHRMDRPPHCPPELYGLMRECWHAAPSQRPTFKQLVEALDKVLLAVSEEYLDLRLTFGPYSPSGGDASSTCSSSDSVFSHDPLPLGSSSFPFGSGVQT
Experiment [5] concerns the target KDR (h) (Homo sapiens, UniProt P35968). Nature of the experiment: KDR (VEGFR2) (enzymatic assay), TR-FRET. In kind it is biochemical. The note with it: read-out: VEGFR 2 (KDR) pIC50 (converted). A digest of the protocol: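 First, kinase (150 ng/ml), Btn-Flt3 (500 nM), ATP (3 μM) and compound (1% DMSO) react 120 min at RT in pH 7.5 HEPES/6 mM MnCl2. Next, EDTA with Eu-anti-P-Tyr and SA-XL-665 stops it for 60 min. Finally, TR-FRET is read as RFU.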

Experiment [6] addresses T1, Ba/F3-FGFR1-transfected cells (Homo sapiens, UniProt P11362).
T1 construct: BAF3-FGFR1 (MIN IL3) pIC50; other: minus IL3
Put plainly: Ba/F3-FGFR1 (minus IL3) cellular proliferation assay, Alamar Blue. In kind it is cell-based. An outline of the steps: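 Viability was measured by resazurin reduction (fluorescence, 540 nm excitation/590 nm emission) after a 4 h Alamar Blue incubation. This followed 24 h of compound treatment at 37 °C, 5% CO2, of 20000 FGFR1-transfected Ba/F3 cells per well in 10% FBS RPMI-1640.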
Background: The colour change of resazurin is a common sign of viable cells or microbes.

In experiment [7] the test system is Ba/F3-FGFR1-transfected cells. Put plainly: Ba/F3-FGFR1 (plus IL3) cellular proliferation assay, counterscreen with 10 ng/ml murine IL3. It is filed as cell-based. The note with it: for BAF3-FGFR1 (PLUS IL3) pIC50: plus IL3 (10 ng/ml murine IL3, counterscreen); for IC50: read-out: BAF3-FGFR1 (PLUS IL3) pIC50 (converted). An outline of the steps: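 Ba/F3-FGFR1 cells (20000/well) in RPMI-1640 with 10% FBS exposed to compound for 24 h at 37° C., 5% CO2, then Alamar Blue (resazurin) added for 4 h; fluorescence read at ex 540/em 590 nm. Counterscreen run identically with 10 ng/ml murine IL3.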
Background: Counterscreens check selectivity or assay interference.

Experiment [8] addresses T2, Ba/F3-FGFR3-transfected cells (Homo sapiens, UniProt P22607).
T2 construct: BAF3-FGFR3 (MIN IL3) pIC50; other: minus IL3
Put plainly: Ba/F3-FGFR3 (minus IL3) cellular proliferation assay, Alamar Blue. In kind it is cell-based. An outline of the steps:
(§1)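 Viability readout was resazurin reduction (ex 540/em 590 nm) after 4 h, following 24 h compound treatment at 37 °C of FGFR3-transfected Ba/F3 cells (20000/well, RPMI-1640/10% FBS). IL3-dependent counterscreen used identical conditions plus 10 ng/ml murine IL3.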

For experiment [9], the system named is Ba/F3-FGFR3-transfected cells. Put plainly: Ba/F3-FGFR3 (plus IL3) cellular proliferation assay, counterscreen with 10 ng/ml murine IL3. It is filed as cell-based. The settings on record: for BAF3-FGFR3 (PLUS IL3) pIC50: plus IL3 (10 ng/ml murine IL3, counterscreen); for IC50: read-out: BAF3-FGFR3 (PLUS IL3) pIC50 (converted). A digest of the protocol:
as §1

The target of experiment [10] is T3, Ba/F3-KDR-transfected cells (Homo sapiens, UniProt P35968).
T3 construct: BAF3-KDR (MIN IL3) pIC50; other: minus IL3
Nature of the experiment: Ba/F3-KDR (minus IL3) cellular proliferation assay, Alamar Blue. In kind it is cell-based. A digest of the protocol:
(§2)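 Proliferation is measured as Alamar Blue relative fluorescence units following 24 h compound treatment of 20000 cells per well in 10% FBS medium. The IL3-supplemented run serves as a counterscreen under the same conditions.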

For experiment [11], the system named is Ba/F3-KDR-transfected cells. Put plainly: Ba/F3-KDR (plus IL3) cellular proliferation assay, counterscreen with 10 ng/ml murine IL3. It is filed as cell-based. The settings on record: for BAF3-KDR (PLUS IL3) pIC50: plus IL3 (10 ng/ml murine IL3, counterscreen); for IC50: read-out: BAF3-KDR (PLUS IL3) pIC50 (converted). A digest of the protocol: as §2
The target of experiment [12] is Ba/F3-FGFR4-transfected cells (Homo sapiens, UniProt P22455). Put plainly: Ba/F3-FGFR4 cellular proliferation assay, Alamar Blue. In kind it is cell-based. An outline of the steps: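 Proliferation of Ba/F3-FGFR4-transfected cells is gauged by Alamar Blue (resazurin) fluorescence after 24 hours of compound treatment in phenol red free RPMI-1640 with 10% FBS.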
Setting [13] is: average values if tested multiple times.

T1 sequence (P11362 whole entry, change not shown): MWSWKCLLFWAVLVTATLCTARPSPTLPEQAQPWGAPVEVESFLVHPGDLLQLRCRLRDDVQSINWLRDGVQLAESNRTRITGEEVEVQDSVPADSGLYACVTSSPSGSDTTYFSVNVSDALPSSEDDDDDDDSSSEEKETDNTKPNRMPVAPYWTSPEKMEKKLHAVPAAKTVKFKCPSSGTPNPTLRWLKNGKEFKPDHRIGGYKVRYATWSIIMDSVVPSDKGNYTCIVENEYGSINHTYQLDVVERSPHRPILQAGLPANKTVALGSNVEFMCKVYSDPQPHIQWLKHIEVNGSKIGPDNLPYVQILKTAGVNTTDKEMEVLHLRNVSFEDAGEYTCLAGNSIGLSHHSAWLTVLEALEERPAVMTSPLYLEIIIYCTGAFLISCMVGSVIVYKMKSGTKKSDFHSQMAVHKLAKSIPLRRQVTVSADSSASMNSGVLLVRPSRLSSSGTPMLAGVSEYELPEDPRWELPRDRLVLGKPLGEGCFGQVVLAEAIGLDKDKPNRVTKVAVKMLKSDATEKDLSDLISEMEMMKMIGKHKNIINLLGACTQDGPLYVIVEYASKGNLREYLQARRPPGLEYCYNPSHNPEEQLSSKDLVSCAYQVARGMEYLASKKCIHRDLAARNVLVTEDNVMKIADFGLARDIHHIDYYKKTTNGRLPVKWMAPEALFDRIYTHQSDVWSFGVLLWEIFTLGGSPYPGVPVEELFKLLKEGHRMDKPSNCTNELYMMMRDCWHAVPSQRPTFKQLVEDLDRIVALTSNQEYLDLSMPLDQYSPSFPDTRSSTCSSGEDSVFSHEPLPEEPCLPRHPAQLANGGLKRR
Chain of FGFR3 (h) (P22607 23-806): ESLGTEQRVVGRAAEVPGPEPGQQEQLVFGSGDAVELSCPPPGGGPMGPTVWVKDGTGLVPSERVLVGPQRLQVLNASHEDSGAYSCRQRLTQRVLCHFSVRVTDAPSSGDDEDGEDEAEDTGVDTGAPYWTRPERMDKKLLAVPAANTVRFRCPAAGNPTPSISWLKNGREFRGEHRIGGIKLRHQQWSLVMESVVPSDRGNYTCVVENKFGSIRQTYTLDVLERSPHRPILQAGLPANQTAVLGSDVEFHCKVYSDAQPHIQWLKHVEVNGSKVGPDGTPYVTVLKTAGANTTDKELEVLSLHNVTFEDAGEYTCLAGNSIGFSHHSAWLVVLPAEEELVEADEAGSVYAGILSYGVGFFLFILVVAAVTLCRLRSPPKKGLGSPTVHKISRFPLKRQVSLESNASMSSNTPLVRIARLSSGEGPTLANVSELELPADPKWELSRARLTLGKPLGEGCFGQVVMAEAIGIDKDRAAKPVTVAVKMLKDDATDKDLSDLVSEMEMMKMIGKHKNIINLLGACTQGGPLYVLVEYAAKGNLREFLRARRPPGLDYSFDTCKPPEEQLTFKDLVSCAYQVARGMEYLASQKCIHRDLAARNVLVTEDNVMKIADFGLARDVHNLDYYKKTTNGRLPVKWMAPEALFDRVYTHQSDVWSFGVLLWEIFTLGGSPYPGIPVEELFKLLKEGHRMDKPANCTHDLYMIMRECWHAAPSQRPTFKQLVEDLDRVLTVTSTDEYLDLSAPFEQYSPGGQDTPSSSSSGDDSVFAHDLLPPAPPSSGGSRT
Chain of KDR (h) (P35968 20-1356): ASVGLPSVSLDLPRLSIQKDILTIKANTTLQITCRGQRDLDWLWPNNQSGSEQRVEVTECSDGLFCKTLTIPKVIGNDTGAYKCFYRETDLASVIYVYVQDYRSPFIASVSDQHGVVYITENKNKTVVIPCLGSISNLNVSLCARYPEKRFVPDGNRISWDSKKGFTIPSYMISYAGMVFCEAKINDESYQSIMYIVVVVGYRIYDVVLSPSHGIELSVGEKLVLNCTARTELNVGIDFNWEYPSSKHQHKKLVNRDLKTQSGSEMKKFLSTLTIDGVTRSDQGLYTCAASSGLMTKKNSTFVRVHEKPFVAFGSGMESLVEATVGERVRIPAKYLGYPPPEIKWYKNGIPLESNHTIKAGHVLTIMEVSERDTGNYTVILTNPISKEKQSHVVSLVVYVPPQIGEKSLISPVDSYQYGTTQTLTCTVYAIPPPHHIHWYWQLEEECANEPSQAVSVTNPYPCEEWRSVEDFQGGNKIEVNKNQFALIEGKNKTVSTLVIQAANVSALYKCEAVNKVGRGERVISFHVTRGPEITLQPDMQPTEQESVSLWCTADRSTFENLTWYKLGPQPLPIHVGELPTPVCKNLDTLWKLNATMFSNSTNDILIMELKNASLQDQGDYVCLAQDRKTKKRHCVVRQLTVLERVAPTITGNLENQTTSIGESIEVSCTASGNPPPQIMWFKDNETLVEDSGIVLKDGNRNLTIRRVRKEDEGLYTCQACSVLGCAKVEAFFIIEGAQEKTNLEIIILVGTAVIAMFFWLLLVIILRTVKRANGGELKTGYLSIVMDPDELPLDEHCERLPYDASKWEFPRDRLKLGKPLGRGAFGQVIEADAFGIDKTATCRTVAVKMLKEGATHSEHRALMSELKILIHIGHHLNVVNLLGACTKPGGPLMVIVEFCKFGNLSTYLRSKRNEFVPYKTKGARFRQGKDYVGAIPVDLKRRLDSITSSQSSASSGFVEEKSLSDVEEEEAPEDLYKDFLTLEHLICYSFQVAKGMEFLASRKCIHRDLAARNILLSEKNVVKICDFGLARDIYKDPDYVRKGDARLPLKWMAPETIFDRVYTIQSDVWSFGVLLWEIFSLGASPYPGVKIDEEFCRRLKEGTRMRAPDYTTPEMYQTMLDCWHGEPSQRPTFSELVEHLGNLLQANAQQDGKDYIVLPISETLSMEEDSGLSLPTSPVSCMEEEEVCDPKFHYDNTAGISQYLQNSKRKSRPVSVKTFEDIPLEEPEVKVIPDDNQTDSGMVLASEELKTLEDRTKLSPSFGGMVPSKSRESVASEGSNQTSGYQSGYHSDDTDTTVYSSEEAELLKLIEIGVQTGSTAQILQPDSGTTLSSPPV
Chain of FGFR2 (h) (P21802 22-821): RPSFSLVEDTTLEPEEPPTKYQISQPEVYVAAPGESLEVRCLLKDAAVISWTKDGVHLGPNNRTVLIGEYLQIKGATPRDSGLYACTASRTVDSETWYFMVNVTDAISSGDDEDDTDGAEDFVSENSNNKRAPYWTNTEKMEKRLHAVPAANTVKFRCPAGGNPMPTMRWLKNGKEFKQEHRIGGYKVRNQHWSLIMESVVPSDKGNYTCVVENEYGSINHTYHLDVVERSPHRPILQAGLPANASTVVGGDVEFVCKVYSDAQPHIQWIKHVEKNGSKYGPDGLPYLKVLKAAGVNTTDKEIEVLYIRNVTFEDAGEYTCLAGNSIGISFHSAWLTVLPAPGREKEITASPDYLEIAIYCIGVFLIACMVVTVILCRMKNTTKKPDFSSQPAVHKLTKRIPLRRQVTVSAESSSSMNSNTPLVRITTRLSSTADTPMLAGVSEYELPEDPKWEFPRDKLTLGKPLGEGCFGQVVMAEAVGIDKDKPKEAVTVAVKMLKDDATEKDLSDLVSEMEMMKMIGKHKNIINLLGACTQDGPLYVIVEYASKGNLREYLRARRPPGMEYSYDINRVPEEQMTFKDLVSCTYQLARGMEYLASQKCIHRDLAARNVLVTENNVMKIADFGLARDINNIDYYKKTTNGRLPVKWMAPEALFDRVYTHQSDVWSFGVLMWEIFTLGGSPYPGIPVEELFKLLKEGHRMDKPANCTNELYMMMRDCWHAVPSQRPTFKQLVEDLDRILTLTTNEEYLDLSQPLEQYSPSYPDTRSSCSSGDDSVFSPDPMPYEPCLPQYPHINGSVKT

For the compound `COc1cc(/N=c2\ccc3ncc(-c4cnn(C)c4)nc3n2CC2CCC(=O)N2C)c(F)c(OC)c1` (stereo not drawn) [Compound 160], the IC50 in experiment [1] was 1.17 nM; in [2] it was 1.82 nM; in experiment [3], 1.07 nM; in [4], roughly 3.39 nM; in [5] it was 7.24 nM. For the same compound, in [6], the “BAF3-FGFR1 (MIN IL3) pIC50” value is 7.58. The “BAF3-FGFR1 (PLUS IL3) pIC50” value in [7] is reported as less than 5. Moreover, the “BAF3-FGFR3 (MIN IL3) pIC50” value in experiment [8] came out at 7.20. Also, the “BAF3-FGFR3 (PLUS IL3) pIC50” value in [9] was less than 5. Also, the “BAF3-KDR (MIN IL3) pIC50” value in [10] was 5.89. For the same compound, the “BAF3-KDR (PLUS IL3) pIC50” value in experiment [11] is less than 5. Further, the “BAF3-FGFR4 pIC50” value in experiment [12] was 6.99.
As for `COc1cc(/N=c2\ccc3ncc(-c4cnn(C)c4)nc3n2CCN2CCCC2=O)cc(OC)c1` [Compound 150], the IC50 in experiment [1] was 3.8 nM; in [2] it was 2.51 nM; in experiment [3], 3.55 nM; in [4] it was 14.8 nM; in [5] it was 30.9 nM; in [7] it was greater than 10000 nM. The IC50 in experiment [9] and in experiment [11] was greater than 10000 nM each time. In experiment [6], the “BAF3-FGFR1 (MIN IL3) pIC50” value worked out at 6.80. Also, the “BAF3-FGFR3 (MIN IL3) pIC50” value in [8] is on record as roughly 7.06. Besides, in experiment [10], the “BAF3-KDR (MIN IL3) pIC50” value was found to be 5.34. For the same compound, in experiment [12], the “BAF3-FGFR4 pIC50” value was determined as 6.18.
For the compound `CCN(c1ccc2ncc(-c3cnn(C)c3)nc2n1)c1c(F)c(OC)cc(OC)c1F` [Compound 256], the IC50 in [1] is 0.49 nM; in [2], 1.66 nM; in experiment [3], 0.708 nM; in experiment [4], 1.02 nM; in experiment [5], 8.71 nM; in [7], greater than 10000 nM. Moreover, the IC50 in experiment [9] and in experiment [11] was greater than 10000 nM each time. In addition, the “BAF3-FGFR1 (MIN IL3) pIC50” value in experiment [6] is 8.05. In [8], the “BAF3-FGFR3 (MIN IL3) pIC50” value is 8.16. Moreover, the “BAF3-KDR (MIN IL3) pIC50” value in experiment [10] amounted to 6.16. The “BAF3-FGFR4 pIC50” value in experiment [12] turned out to be 7.36.
As for `COc1cc(/N=c2\ccc3ncc(-c4cnn(C)c4)nc3n2CC2CCC(=O)N2)c(F)c(OC)c1` (stereo not drawn) [Compound 53], the IC50 was 1.2 nM in experiment [1] (setting [13]); 1.62 nM in experiment [2] (setting [13]); 1.1 nM in experiment [3] (setting [13]); 3.31 nM in experiment [4] (setting [13]); 12.3 nM in experiment [5] (setting [13]). In addition, the “BAF3-FGFR1 (MIN IL3) pIC50” value in experiment [6] is 7.47. Moreover, the “BAF3-FGFR1 (PLUS IL3) pIC50” value in experiment [7] is less than 5. Besides, the “BAF3-FGFR3 (MIN IL3) pIC50” value in experiment [8] is 7.54. Besides, in experiment [9], the “BAF3-FGFR3 (PLUS IL3) pIC50” value was less than 5. In addition, the “BAF3-KDR (MIN IL3) pIC50” value in experiment [10] was 5.99. In experiment [11], the “BAF3-KDR (PLUS IL3) pIC50” value is reported as less than 5. Besides, the “BAF3-FGFR4 pIC50” value in [12] was 6.85.
As to `COc1cc(OC)cc(N(Cc2ncc[nH]2)c2ccc3ncc(-c4cnn(C)c4)nc3n2)c1` [24-phosphate salt], the IC50 in experiment [1] (setting [13]) was 0.708 nM; in [2] (setting [13]) it was 1.23 nM; in experiment [3] (setting [13]) it was 0.832 nM; in experiment [4] (setting [13]) it was 1.02 nM; in experiment [5] (setting [13]), 14.5 nM. Moreover, the “BAF3-FGFR1 (MIN IL3) pIC50” value in [6] was determined as 8.42. In addition, in experiment [7], the “BAF3-FGFR1 (PLUS IL3) pIC50” value was less than 5. The “BAF3-FGFR3 (MIN IL3) pIC50” value in experiment [8] came out at 7.74. For the same compound, in experiment [9], the “BAF3-FGFR3 (PLUS IL3) pIC50” value is less than 5. In experiment [10], the “BAF3-KDR (MIN IL3) pIC50” value was 6.05. Also, the “BAF3-KDR (PLUS IL3) pIC50” value in experiment [11] is reported as less than 5. For the same compound, the “BAF3-FGFR4 pIC50” value in experiment [12] was determined as 7.47.
